According to patent US9182402B2, “Hepsin inhibitors” (Fred Hutchinson Cancer Research Center, priority 2008, dated 2015):
Like-named read-outs stand apart in the source and are kept apart here.

What was measured:
HepG2 cells = assay: Cell cytotoxicity assay (CellTiter-Glo, ATP-luciferase); settings: HepG2, 20 μM, 72 hours, compounds replenished daily
thrombin = thrombin (Bos taurus (Bovine), UniProt P00735); assay: Thrombin activity assay (chromogenic substrate); type: biochemical; settings: for IC50: 30 minutes preincubation at room temperature, substrate at Km
Description: (§1) Titration of the chromogenic substrate pryoGlu-Pro-Arg-pNA was performed for each enzyme and the resulting substrate-velocity data fit with nonlinear regression using GraphPad Prism 4 software (GraphPad, La Jolla, Calif.) to calculate Vmax and Km. […] The reactions were then followed using a kinetic microplate reader and the linear rates of increase in absorbance at 405 nm expressed as percent activity (100%×vi/vo). At least three independent experiments were performed for each enzyme. The IC50 was calculated by fitting the data to a four-parameter non-linear regression using GraphPad Prism 4.

recombinant human hepsin = recombinant human hepsin (Homo sapiens, UniProt P05981); assay: Hepsin activity assay (chromogenic substrate pyroGlu-Pro-Arg-pNA); type: biochemical
recombinant human hepsin, sequence (P05981 1-162 limits assumed): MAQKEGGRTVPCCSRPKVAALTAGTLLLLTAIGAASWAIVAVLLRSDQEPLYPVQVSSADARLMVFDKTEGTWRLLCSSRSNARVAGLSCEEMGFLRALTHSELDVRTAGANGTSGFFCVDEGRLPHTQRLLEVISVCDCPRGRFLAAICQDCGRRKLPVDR
recombinant human hepsin, sequence (P05981 163-417 limits assumed): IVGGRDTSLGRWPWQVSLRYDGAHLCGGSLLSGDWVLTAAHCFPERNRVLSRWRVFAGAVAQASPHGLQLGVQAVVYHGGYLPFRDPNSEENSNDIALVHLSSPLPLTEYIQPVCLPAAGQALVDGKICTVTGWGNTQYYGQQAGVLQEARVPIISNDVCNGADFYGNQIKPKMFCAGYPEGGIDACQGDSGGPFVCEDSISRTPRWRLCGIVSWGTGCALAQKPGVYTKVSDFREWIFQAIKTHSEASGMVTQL
Description: D. Hepsin, Trypsin and Thrombin Activity Assays.
Purified recombinant hepsin was preincubated with indicated compounds for 30 minutes at room temperature.

trypsin = trypsin (Sus scrofa (Pig), UniProt P00761); assay: Trypsin activity assay (chromogenic substrate); settings: read-out: IC50 trypsin; 30 minutes preincubation at room temperature, substrate at Km
trypsin, sequence (P00761 9-231): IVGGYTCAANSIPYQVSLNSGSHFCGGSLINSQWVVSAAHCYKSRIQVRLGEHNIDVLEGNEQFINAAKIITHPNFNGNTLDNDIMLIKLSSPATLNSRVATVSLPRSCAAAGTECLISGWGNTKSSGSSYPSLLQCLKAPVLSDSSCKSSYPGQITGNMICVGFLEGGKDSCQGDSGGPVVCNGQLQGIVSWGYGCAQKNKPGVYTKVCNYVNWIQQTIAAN
Description: as §1

LNCaP cells = assay: Cell cytotoxicity assay (CellTiter-Glo, ATP-luciferase); settings: 20 μM, 72 hours, compounds replenished daily
[1] = test system: MP-1 mouse prostate epithelial cell line; assay: as above; settings: MP-1, 20 μM, 72 hours, compounds replenished daily
hepsin = hepsin (Mus musculus (Mouse), UniProt O35453); assay: Immunoblot of hepsin expression levels in compound treated HEK 293FT cells; settings: 20 and 50 μM, 24 hours
Description: The membrane was blocked overnight in TBST buffer containing: 5% non-fat milk, 2% normal goat serum in 50 mM Tris-HCl, pH 8.0, 100 mM NaCl, 0.1% Tween-20. The membrane was then incubated in 3% BSA in TBST with polyclonal anti-hepsin antibody (1:1000) for two hours at room temperature, washed 3×5 minutes with TBST and incubated for one hour in 0.1% BSA in TBST containing goat-anti-rabbit-HRP secondary antibody (1:2000), washed 3×5 minutes in TBST and developed with ECL (Pierce Chemicals, Rockford, Ill.). […] Expression levels were quantified by densitometry using ImageQuantTL™ (GE Healthcare Life Sciences, Piscataway, N.J.).
As treatment with chemical compounds may alter hepsin expression level (and thereby impact pericellular proteolytic activity), hepsin levels in drug-treated cells were determined via immunoblotting (FIG. 6B).

[2] = target: full-length wild-type murine hepsin expressed in HEK 293FT cells (Mus musculus (Mouse), UniProt O35453); assay: Hepsin-dependent pericellular serine proteolytic activity assay; type: cell-based; settings: for attenuation of hepsin-dependent pericellular proteolytic activity: 50 μM, activity/expression level relative to vehicle; for attenuation of hepsin-dependent pericellular proteolytic activity / pericellular proteolytic activity (in words): overnight incubation; for pericellular proteolytic activity (in words): 20 and 50 μM
full-length wild-type murine hepsin expressed in HEK 293FT cells, sequence (O35453 other isoform, or with tags, fused parts or gaps): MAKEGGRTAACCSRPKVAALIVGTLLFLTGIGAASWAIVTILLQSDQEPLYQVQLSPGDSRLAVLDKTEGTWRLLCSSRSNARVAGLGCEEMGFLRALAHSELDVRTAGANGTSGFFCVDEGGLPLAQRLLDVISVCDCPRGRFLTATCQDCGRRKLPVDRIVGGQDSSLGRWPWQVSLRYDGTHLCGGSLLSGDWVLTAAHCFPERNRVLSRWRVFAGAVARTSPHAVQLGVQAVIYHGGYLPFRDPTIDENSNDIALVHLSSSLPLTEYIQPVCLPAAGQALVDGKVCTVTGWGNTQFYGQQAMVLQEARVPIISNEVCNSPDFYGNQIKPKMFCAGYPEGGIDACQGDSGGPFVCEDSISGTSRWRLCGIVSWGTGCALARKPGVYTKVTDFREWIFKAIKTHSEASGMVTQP
Description: Loading was verified via immunoblot against β-actin.
G. Pericellular Serine Proteolytic Activity Assay. […] After 3.5 hrs, transfection media was replaced with fresh media containing 20 μM or 50 μM of test compounds or solvent control (0.5% DMSO in media) and cells incubated overnight. Attached cell monolayers were then washed twice with PBS and once with assay buffer (5% CO2 equilibrated phenol-red free DMEM with 1% BSA) to remove residual serum proteases/inhibitors. Cells were then incubated in assay buffer containing 20 or 50 μM compounds for 30 minutes at 37° C. […] Percent inhibition was calculated as residual activity relative to solvent control. Matched samples were used in parallel to determine toxicity of the test compounds to HEK 293FT cells in this system using the CellTiter-Glo™ assay.
D. Inhibition of Hepsin-Dependent Pericellular Proteolytic Activity. To determine whether the identified compounds were able to inhibit cell-based hepsin activity, an assay was devised to measure hepsin-dependent pericellular serine proteolytic activity (FIG. 5A) (Raynaud et al., 1992 J Cell Physiol 151:378; Bauvois et al., 1990 Eur. J. Immunol. 20:459; Bauvois et al., 1992 Eur. J. Immunol. 22:923; Sameni et al., 2000 Neoplasia 2:496; McGowen et al., 2000 Canc. Res. 60:4771). […] Attached cell monolayers were incubated in assay buffer with peptide substrate and the reactions were allowed to proceed at 37° C. […] Activity levels were adjusted by altering hepsin expression levels to within the linear range of detection. A positive linear rate of activity was observed only for wild-type hepsin-expressing cells and was abolished in the presence of the broad spectrum serine protease inhibitor PEFAbloc.

HEK 293FT cells = assay: Toxicity to HEK 293FT cells in the pericellular protease assay system (CellTiter-Glo); type: cell-based; settings: 50 μM, 24-hour treatment
Description: The chromogenic serine protease substrate pyroglutamyl-L-prolyl-L-argininne-p-nitroaniline hydrochloride (pyrGlu-Pro-Arg-pNA) was then added to the media. […] (FIG. 5B) Toxicity of the candidate hepsin inhibitor compounds over the course of the pericellular protease assay was evaluated by 24-hour treatment of cells with 20 μM (white bars) or 50 μM (black bars) compounds, relative to vehicle control. […] Puromycin at 5 μg/mL was used as a positive control.
G. Pericellular Serine Proteolytic Activity Assay. […] After 3.5 hrs, transfection media was replaced with fresh media containing 20 μM or 50 μM of test compounds or solvent control (0.5% DMSO in media) and cells incubated overnight. […] Percent inhibition was calculated as residual activity relative to solvent control. […]
To determine the potential cytotoxicity of the previously identified hepsin inhibitors in this model system, HEK 293FT cells were incubated under identical conditions with 20 and 50 μM of the compounds and cytotoxicity was determined using the ATP-luciferase coupled assay as described above (FIG. 5B). […] The remaining compounds at 20 and 50 μM final concentration were incubated overnight with hepsin expressing cells and pericellular proteolytic activity was determined as described above (FIG. 6).

[3] = 30 minutes preincubation at room temperature, substrate at Km

| SMILES | cellular toxicity (cell viability) (HepG2 cells) | activation of thrombin activity (thrombin; at 1 μM) | IC50 (recombinant human hepsin; [3]) | IC50 (trypsin) | cellular toxicity (cell viability) (LNCaP cells) | cellular toxicity (cell viability) [1] | IC50 (thrombin) | hepsin expression levels (hepsin) | attenuation of hepsin-dependent pericellular proteolytic activity [2] | pericellular proteolytic activity (in words) [2] | cytotoxicity to HEK 293FT cells (HEK 293FT cells) | IC50 (recombinant human hepsin) | pericellular proteolytic activity in the presence of inhibitor ([2]; wild-type hepsin-expressing cells, 30 minutes incubation) |
| --- | --- | --- | --- | --- | --- | --- | --- | --- | --- | --- | --- | --- | --- |
| O=C1C=CC(=O)N1c1cccc([N+](=O)[O-])c1 [Compound 1, 1-(3-nitrophenyl)-1H-pyrrole-2,5-dione] | without affecting | approximately 3 fold | 280 ± 70 nM | 3880 ± 850 nM | substantial toxicity | without affecting |  |  |  |  |  |  |  |
| O=[N+]([O-])c1ccc(C2Nc3c(cccc3C(F)(F)F)C3C=CCC32)cc1 (centres unmarked) [Compound 5, 4-(4-nitrophenyl)-6-(trifluoromethyl)-3a,4,5,9b-tetrahydro-3H-cyclopenta[c]quinoline] | limited or no cytotoxicity |  | 570 ± 190 nM | 31200 ± 2000 nM | limited or no cytotoxicity | limited or no cytotoxicity | > 20000 nM | without substantially affecting hepsin expression levels | approximately 60% | attenuated pericellular proteolytic activity in a dose dependent manner |  |  |  |
| O=C1c2c(O)cccc2Cc2cccc(O)c21 [Compound 15, 1,8-dihydroxyanthracen-9(10H)-one, reference compound] | toxic |  | 230 ± 50 nM | 1260 ± 300 nM | toxic | toxic | > 20000 nM |  |  |  | substantial toxicity |  |  |
| COc1cccc(OCCOc2cccc(/C=c3\sc4nc5ccccc5n4c3=O)c2)c1 [Compound 11, 2-{3-[2-(3-methoxyphenoxy)ethoxy]benzylidene}[1,3]thiazolo[3,2-a]benzimidazol-3(2H)-one] | limited or no cytotoxicity |  |  | 2000 ± 330 nM | limited or no cytotoxicity | limited or no cytotoxicity |  |  |  |  |  | 1310 ± 440 nM |  |
| Cl.NCCc1ccc(S(=O)(=O)F)cc1 [PEFAbloc, reference compound] |  |  |  |  |  |  |  |  |  |  |  |  | abolished |
| Oc1nc2cc(Cl)c(Cl)cc2nc1O [Compound 16, 2,3-dihydroxy-6,7-dichloroquinoxaline] | limited or no cytotoxicity |  | 750 ± 90 nM | 2420 ± 290 nM | limited or no cytotoxicity | limited or no cytotoxicity | > 20000 nM |  |  |  |  |  |  |
| O=C1NC(=O)N(c2cccc(Br)c2)C(=O)/C1=C/c1c[nH]c2ccccc12 [Compound 3] | limited or no cytotoxicity |  | 1930 ± 390 nM | 7630 ± 1510 nM | limited or no cytotoxicity | limited or no cytotoxicity | > 20000 nM | without substantially affecting hepsin expression levels | approximately 50% | attenuated pericellular proteolytic activity in a dose dependent manner |  |  |  |
| Cc1ccc(OCc2nnc(NC(=O)Nc3cccc(Cl)c3)s2)cc1C [Compound 2, N-(3-chlorophenyl)-N′-{5-[(3,4-dimethylphenoxy)methyl]-1,3,4-thiadiazol-2-yl}urea] | without affecting |  | 760 ± 260 nM | > 20000 nM | substantial toxicity | without affecting | > 20000 nM |  |  |  |  |  |  |
| O=C(Nc1ccc(Cl)c(Cl)c1)Nc1nnc(-c2ccc(Br)cc2)s1 [Compound 8, N-[5-(4-bromophenyl)-1,3,4-thiadiazol-2-yl]-N′-(3,4-dichlorophenyl)urea] | limited or no cytotoxicity |  | 720 ± 200 nM | 1710 ± 210 nM | limited or no cytotoxicity | limited or no cytotoxicity | > 20000 nM |  |  |  |  |  |  |
| O=C(Nc1ccc(-c2nc3ccccc3o2)c(O)c1)c1ccc(-c2cccc([N+](=O)[O-])c2)o1 [Compound 12, N-[4-(1,3-benzoxazol-2-yl)-3-hydroxyphenyl]-5-(3-nitrophenyl)-2-furamide] | without affecting |  | 330 ± 70 nM | 3500 ± 670 nM | substantially toxic | substantially toxic | > 20000 nM |  |  |  | substantial toxicity |  |  |
| Cc1cccc(C2Nc3cccc4cccc(c34)N2)c1 [Compound 4, 2-(3-methylphenyl)-2,3-dihydro-1H-perimidine] | limited or no cytotoxicity |  | 350 ± 120 nM | 19600 ± 2700 nM | limited or no cytotoxicity | limited or no cytotoxicity | > 20000 nM | without substantially affecting hepsin expression levels | approximately 60% | attenuated pericellular proteolytic activity in a dose dependent manner |  |  |  |
| O=[N+]([O-])c1cccc(C2Nc3ccc(Cl)cc3C3C=CCC32)c1 (centres unmarked) [Compound 6, 8-chloro-4-(3-nitrophenyl)-3a,4,5,9b-tetrahydro-3H-cyclopenta[c]quinoline] | limited or no cytotoxicity |  | 980 ± 200 nM | 10200 ± 1500 nM | limited or no cytotoxicity | limited or no cytotoxicity | > 20000 nM |  |  |  |  |  |  |
| CC1(C)CC(=O)c2c(oc3c(Br)cc(NS(=O)(=O)c4ccccc4)cc23)C1 [Compound 10, N-(4-bromo-7,7-dimethyl-9-oxo-6,7,8,9-tetrahydrodibenzo[b,d]furan-2-yl)benzenesulfonamide] | limited or no cytotoxicity |  | 930 ± 130 nM | 7720 ± 1100 nM | limited or no cytotoxicity | limited or no cytotoxicity | > 20000 nM |  |  |  |  |  |  |
| O=c1oc(-c2cccc(F)c2)nc2ccc(Cc3ccc4nc(-c5cccc(F)c5)oc(=O)c4c3)cc12 [Compound 7, 6,6′-methylenebis[2-(3-fluorophenyl)-4H-3,1-benzooxazin-4-one]] | limited or no cytotoxicity |  | 2310 ± 530 nM | 13100 ± 3000 nM | limited or no cytotoxicity | limited or no cytotoxicity | > 20000 nM |  |  |  |  |  |  |
| Cc1csc(-c2cc3ccc(OCc4c(F)c(F)c(F)c(F)c4F)cc3oc2=O)n1 [Compound 9, 3-(4-methyl-1,3-thiazol-2-yl)-7-[(pentafluorobenzyl)oxy]-2H-chromen-2-one] | limited or no cytotoxicity |  | 980 ± 120 nM | 20900 ± 7500 nM | limited or no cytotoxicity | limited or no cytotoxicity | > 20000 nM |  |  |  |  |  |  |
